Measurements as given in patent US10316039B2, “P2X3 and/or P2X2/3 compounds and methods” (Asana Biosciences, LLC, priority 2013, dated 2019).

Experiments:
[1] = target: T1, P2X3 (UniProt P56373); experiment: P2X3 FLIPR intracellular calcium assay; format: cell-based; conditions: agonist at EC75, species (human or rat) not given
T1 sequence (P56373 1-397): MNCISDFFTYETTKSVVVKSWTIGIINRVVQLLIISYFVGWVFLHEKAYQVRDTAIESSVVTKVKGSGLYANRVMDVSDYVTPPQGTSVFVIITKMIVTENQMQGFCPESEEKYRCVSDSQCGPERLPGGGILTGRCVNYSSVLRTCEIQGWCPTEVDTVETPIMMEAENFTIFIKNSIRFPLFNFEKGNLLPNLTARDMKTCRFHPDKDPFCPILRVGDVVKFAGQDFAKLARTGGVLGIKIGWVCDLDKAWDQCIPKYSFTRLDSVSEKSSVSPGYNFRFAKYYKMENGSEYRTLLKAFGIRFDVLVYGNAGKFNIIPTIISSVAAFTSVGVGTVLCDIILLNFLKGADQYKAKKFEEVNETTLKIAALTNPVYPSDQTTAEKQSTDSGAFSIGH
Excerpt: The FLIPR® assay utilizes cells which express human or rat P2X3 or P2X2/3 receptors. […] The PCR product obtained containing the protein coding sequence of rat P2X2 was cloned into EcoRV-digested and dephosphorylated vector pIRES-puro3 within the multiple cloning site (MCS). See, FIG. 1A.
Rat P2X3 (NCBI Accession No: X91167) was amplified by PCR from rat brain cDNA. The PCR product obtained containing the protein coding sequence of rat P2X3 was cloned into EcoRV-digested and dephosphorylated vector pCDNA-Hygro within the multiple cloning site (MCS) (FIG. 1B). Rat P2X3 cloned into pcDNA-Hygro was then subcloned into pcDNA-5/TO at HindIII (5′) and XhoI (3′) sites within the multiple cloning site (MCS) of the vector (FIG. 1C).
(§1) Transfection was carried out using super-coiled constructs (purified using QIAGEN kit) in antibiotic free, serum free DMEM using Lipofectamine® 2000 (Invitrogen) transfection agent. The DNA constructs rat P2X2 in pIRES-Puro3 and rat P2X3 in pCDNA5/TO were co-transfected into TRex293 cells in order to generate the rP2X2/3 stable line. 50 μg/mL hygromycin (Invitrogen) and 0.5 μg/mL puromycin (Fermentek) were used for selection of stable clones of rP2X2/3. Rat P2X3 in pCDNA5/TO DNA construct was transfected to CHO-TRex cells to generate the rP2×3 stable line and 500 μg/mL hygromycin (Invitrogen) was used as selection antibiotic. Transfected stable colonies were then functionally verified and robust clones suitable for assay were clonally purified through dilutions.
(§2) Cryo-vial containing 6×10^6 cells (human P2X3-HEK/human P2X2/3-TRex293/rat P2X2/3-TRex293/rat P2X3 TRex-CHO) was thawed in a 37° C. water bath. Cells were suspended in 20 mL of respective cell plating media (See annexure for composition) in a 50 mL centrifuge tube. The cell viability was checked with the help of Trypan Blue dye. Upon washing, cells were plated in a black 384-well clear bottomed, sterile poly-D-lysine coated plate such that, each well contained 10,000 cells (15,000/well for hP2X3) in 30 μL cell plating media. The plate was incubated in a 5% CO2 incubator at 37° C. for 24 h.
(§3) The next day, prior to the assay, the cell plating media was removed from each well by decanting and gentle tapping. Thirty μL of FLIPR Calcium 4 dye solution was added to each well. The plate was incubated at 37° C. for 45 min (60 min for hP2X3). The plate was next equilibrated at room temperature for 15 minutes before placing it in a 384 well FLIPR for the assay.
Dilutions were mixed with assay buffer just before performing the assay.
(§4) Compounds were added to the respective wells of the assay-ready cell plate with the help of the FLIPR and fluorescence readings were captured for 5 min to observe any possible agonistic property of the compounds. The plate was then incubated at room temperature for 15 min. The cells were stimulated with respective agonist EC75 concentration and the fluorescence readings were captured for another 5 min by FLIPR. The difference in fluorescence readings in presence of the compounds were compared with that of the control wells (wells having no compound) to calculate the inhibitory potency of the compounds. The IC50 values of the compounds were determined using the Graph pad Prism software.
(vi) Dye Solution Composition • 1×FLIPR Calcium 4 dye in assay buffer (Molecular devices Cat# R8141) • 1.8 mM Probenecid (Sigma Cat# P8761) • pH adjusted to 7.4

[2] = target: T2, P2X2/3 (Homo sapiens, UniProt P56373+Q9UBL9); experiment: P2X2/3 FLIPR intracellular calcium assay; format: cell-based; conditions: agonist at EC75, species (human or rat) not given
T2 sequence (Q9UBL9 1-471): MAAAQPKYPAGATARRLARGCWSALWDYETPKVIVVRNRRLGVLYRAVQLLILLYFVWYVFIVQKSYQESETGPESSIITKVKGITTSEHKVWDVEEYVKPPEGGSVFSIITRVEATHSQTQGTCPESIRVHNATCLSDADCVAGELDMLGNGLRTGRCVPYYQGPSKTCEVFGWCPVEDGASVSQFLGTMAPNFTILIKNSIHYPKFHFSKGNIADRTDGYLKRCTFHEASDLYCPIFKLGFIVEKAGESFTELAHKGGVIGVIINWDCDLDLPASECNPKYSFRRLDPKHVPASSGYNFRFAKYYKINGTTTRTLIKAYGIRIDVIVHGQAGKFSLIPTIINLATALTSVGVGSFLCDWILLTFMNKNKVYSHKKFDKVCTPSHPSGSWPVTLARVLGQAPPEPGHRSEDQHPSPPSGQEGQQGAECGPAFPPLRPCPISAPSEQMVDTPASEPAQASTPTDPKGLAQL
T2 sequence (P56373 1-397): T1 sequence (P56373 1-397)
Excerpt: The FLIPR® assay utilizes cells which express human or rat P2X3 or P2X2/3 receptors. Recombinant cells expressing hP2X3 (Cat#6188) and hP2X2/3 (Cat#6179) were procured from Chantest Corp. Rat P2X2 (NCBI Accession No: U14414) was amplified by PCR from PC12 cDNA (a rat adrenal medulla cell line). The PCR product obtained containing the protein coding sequence of rat P2X2 was cloned into EcoRV-digested and dephosphorylated vector pIRES-puro3 within the multiple cloning site (MCS). See, FIG. 1A.
as §1, §2, §3
Compounds were dissolved in DMSO and serially diluted following 11 point half log (3.16 fold) dilution with a starting concentration of 2 mM. Dilutions were mixed with assay buffer just before performing the assay.
as §4
(ii) Cell Plating Media for hP2X3-HEK and hP2X2/3-TRex293 Cells • DMEM/F12 (1:1) HAM media (Invitrogen; Cat#11039) • 1×NEAA (Invitrogen; Cat#11140) • 25 mM HEPES (Invitrogen; Cat#15630) • 1 mM sodium pyruvate (Invitrogen; Cat#11360) • 10% tetracycline negative FBS (PAA; Cat# A15-209) • 1 μg/mL doxycycline (Clontech; Cat#63131) [for hP2X2/3-TRex293 cells only]
(iii) Cell Plating Media for rP2X2/3-TRex293 Cells • DMEM media (Invitrogen; Cat#11965) • 25 mM HEPES (Invitrogen; Cat#15630) • 10% tetracycline negative FBS (PAA; Cat# A15-209) • 1 μg/mL Doxycycline (Clontech; Cat#63131)
(v) Assay Buffer Composition • HBSS (Invitrogen Cat#14025) • 20 mM HEPES (Invitrogen Cat#15630) • 0.01% F127 (Sigma Cat# P2443) • 1.8 mM CaCl2 (Sigma Cat# C5080) • pH adjusted to 7.4 […]

IC50 [1] [nM] | IC50 [2] [nM] | SMILES
> 10000 | 1 to 100 | CCCc1nnnn1-c1cc(C(=O)NCc2ccc(C)nc2)cn2c(-c3ccc(C)s3)cnc12 [Example 158]
1 to 100 | 1 to 100 | Cc1ccc(-c2cnc3c(-n4nncc4C(F)F)cc(C(=O)N[C@@H](C)c4nnc[nH]4)cn23)s1 [Example 4, (S)—N-(1-(4H-1,2,4-Triazol-3-yl)ethyl)-8-(5-(difluoromethyl)-1H-1,2,3-triazol-1-yl)-3-(5-methylthiophen-2-yl)imidazo[1,2-a]pyridine-6-carboxamide]
> 10000 | 1 to 100 | Cc1ccc(-c2cnc3c(-n4nnnc4C4CCC4)cc(C(=O)NCc4ccn(C)c(=O)c4)cn23)s1 [Example 161]
> 10000 | 1 to 100 | Cc1ccc(CNC(=O)c2cc(-c3c(C)noc3C)c3ncc(-c4ccc(C)s4)n3c2)cn1 [Example 106]
1 to 100 | 1000 to 10000 | Cc1ccc(-c2cnc3c(Nc4ncc(C)s4)cc(C(=O)N[C@@H](C)c4nnc[nH]4)cn23)s1 [Example 94]
1 to 100 | 1 to 100 | Cc1ccc(-c2cnc3c(-c4c(C)noc4C)cc(C(=O)N[C@@H](C)c4nnc[nH]4)cn23)s1 [Example 102]
1 to 100 | 100 to 1000 | CC[C@H](NC(=O)c1cc(-n2nncc2C(C)C)c2ncc(-c3ccc(Cl)s3)n2c1)c1nnc[nH]1 [Example 69]
100 to 1000 | 100 to 1000 | COc1ccccc1Nc1cc(C(=O)N[C@@H](C)c2nnc[nH]2)cn2c(-c3ccc(C)s3)cnc12 [Example 96]
1 to 100 | 1000 to 10000 | Cc1ccc(-c2cnc3c(Nc4ccccc4)cc(C(=O)NCc4ccn(C)c(=O)c4)cn23)s1 [Example 90]
1 to 100 | > 10000 | Cc1ccc(-c2cnc3c(Nc4ccc(F)cc4)cc(C(=O)N[C@@H](C)c4nnc[nH]4)cn23)s1 [Example 95]
1 to 100 | 1 to 100 | Cc1ccc(-c2cnc3c(N4CCC(F)(F)CC4)cc(C(=O)N[C@@H](C)c4nnc[nH]4)cn23)s1 [Example 130]
1 to 100 | 1 to 100 | COc1ncc(CNC(=O)c2cc(-n3nncc3C(F)F)c3ncc(-c4ccc(C)s4)n3c2)cn1 [Example 35]
1 to 100 | 100 to 1000 | Cc1ncc(CNC(=O)c2cc(-n3nncc3C(C)(F)F)c3ncc(-c4ncc(C)s4)n3c2)cn1 [Example 71]

The remaining lines, values behind:

SMILES | IC50 [1] [nM] | IC50 [2] [nM]
Cc1ccc(CNC(=O)c2cc(-n3nncc3C(F)(F)F)c3ncc(-c4ncc(C)s4)n3c2)cn1 [Example 56] | 1 to 100 | 100 to 1000
Cc1ncc(CNC(=O)c2cc(-n3nncc3C(F)(F)F)c3ncc(-c4ncc(C)s4)n3c2)cn1 [Example 68] | 1 to 100 | 100 to 1000
Cc1cnc(-c2cnc3c(-c4c(C)noc4C)cc(C(=O)N[C@@H](C)c4nnc[nH]4)cn23)s1 [Example 109] | 1 to 100 | 100 to 1000
Cc1ncc(CNC(=O)c2cc(-n3nncc3C(C)C)c3ncc(-c4ccc(C)s4)n3c2)cn1 [Example 40] | > 10000 | 1 to 100
COC1CCN(c2cc(C(=O)N[C@@H](C)c3nnc[nH]3)cn3c(-c4ccc(C)s4)cnc23)CC1 [Example 140] | 1 to 100 | 100 to 1000
CC[C@H](NC(=O)c1cc(N2CCC(OC)CC2)c2ncc(-c3ccc(C)s3)n2c1)c1nnc[nH]1 [Example 146] | 1 to 100 | 100 to 1000
Cc1ccc(-c2cnc3c(-n4nncc4C(C)(C)C)cc(C(=O)N[C@@H](C)c4nnc[nH]4)cn23)s1 [Example 46] | 1 to 100 | 1 to 100
Cc1ccc(CNC(=O)c2cc(-n3nnnc3C3CCC3)c3ncc(-c4ccc(C)s4)n3c2)cn1 [Example 155] | > 10000 | 1 to 100
CCC(=O)N(c1cc(C(=O)N[C@@H](C)c2nnc[nH]2)cn2c(-c3ccc(C)s3)cnc12)C1CC1 [Example 188] | 1 to 100 | 100 to 1000
Cc1ncc(CNC(=O)c2cc(-n3nnnc3C(F)F)c3ncc(-c4ncc(C)s4)n3c2)cn1 [Example 172] | 1 to 100 | 1 to 100
